Data: PubChem BioAssay (NCI)
Where “and” joins values, the source holds several entries; their conditions need not be identical. Equal values may be shown once.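 Dose response: 5 concentrations. Exposure: 48 h. Format: 96-well plates. Endpoint: linear interpolation; highest concentration if not reached. The concentration for 50% growth inhibition is given as GI50. The concentration for full growth arrest is given as TGI.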

What was measured:
Experiment in all cases: NCI-60 cell line screen, 48 h
[1] = test system: DU-145 prostate
[2] = test system: MCF7 breast
[3] = test system: MDA-MB-231 breast
[4] = test system: NCI-H226 lung
[5] = test system: SF-268 CNS
[6] = test system: SK-MEL-28 melanoma
[7] = test system: SK-MEL-5 melanoma
[8] = test system: SK-OV-3 ovarian
[9] = test system: SW-620 colon
[10] = test system: UO-31 renal

| Structure (SMILES) | GI50 [1] | TGI [1] | GI50 [2] | TGI [2] | GI50 [3] | TGI [3] | GI50 [4] | TGI [4] | GI50 [5] | TGI [5] | GI50 [6] | TGI [6] | GI50 [7] | TGI [7] | GI50 [8] | TGI [8] | GI50 [9] | TGI [9] | GI50 [10] | TGI [10] |
| --- | --- | --- | --- | --- | --- | --- | --- | --- | --- | --- | --- | --- | --- | --- | --- | --- | --- | --- | --- | --- |
| CCCCC[C@H]1C/C=C2/C(=O)C=C[C@@H]2C/C=C\CCCC(=O)O[C@@H](CCCCC)C/C=C2/C(=O)C=C[C@@H]2C/C=C\CCCC(=O)O1 | 0.355 µM | 1.34 µM | 0.119 µM | 0.484 µM | 0.132 µM | 2.17 µM | 0.746 µM | 1.64 µM | 0.442 µM | 1.75 µM | 0.196 µM | 0.675 µM | 0.414 µM | 0.791 µM | 0.824 µM | 2.39 µM | 0.135 µM | 0.734 µM | 0.394 µM | 0.75 µM |
| N#CCCN(CCCN(CCCN(C(=O)Nc1ccccc1)c1ccccc1)C(=O)Nc1ccccc1)C(=O)Nc1ccccc1 | > 100 µM | > 100 µM | 11.9 µM | > 100 µM | > 100 µM | > 100 µM |  | > 100 µM | 74.8 µM | > 100 µM | > 100 µM | > 100 µM | > 100 µM | > 100 µM | > 100 µM | > 100 µM | > 100 µM | > 100 µM |  | > 8.75 µM |
| CCC1CN2C(=N1)c1ccccc1-c1cc(Cl)ccc12 (stereo unspecified) | 2.31 µM | 6.26 µM | 2.45 µM | 14.1 µM | 3.4 µM | 25.4 µM | 1.81 µM | 4.86 µM | 2.96 µM | 11.6 µM | 4.97 µM | 18.4 µM | 2.03 µM | 4.69 µM | 4.27 µM | 24.6 µM | 2.72 µM | 15.5 µM | 2.39 µM | 15.1 µM |
| CNCCCn1c2c(c3ccc([N+](=O)[O-])cc3c1=O)C(=O)c1cc(OC)cnc1-2 | 0.052 µM | 1.15 µM | 0.0132 µM | 1.06 µM | 0.265 µM | 1.72 µM | 0.0946 µM | 0.245 µM | 0.0685 µM | 2.17 µM | 0.387 µM | 2.1 µM | 0.107 µM | 0.279 µM | 0.0568 µM | 0.351 µM | 0.0349 µM | 1.12 µM | 0.0341 µM | 0.221 µM |
| COc1ccc2c(c1)nnn1c3ncccc3c(N=O)c21 | 1.82 µM and 2.38 µM | 13 µM and 8.09 µM | 0.132 µM and 0.336 µM | 0.814 µM and 2.21 µM | 1.26 µM and 1.88 µM | 12.7 µM and 6.41 µM | 4.14 µM and 11.6 µM | 13.1 µM and 47.7 µM | 0.465 µM and 1.73 µM | 3.56 µM and 8.25 µM | 3.48 µM and 11.4 µM | 13.6 µM and 74.4 µM | 5.01 µM and 11.7 µM | 11.1 µM and 24.1 µM | 1.68 µM and 2.94 µM | 11.8 µM and 19.6 µM | 0.27 µM and 1.34 µM |  | 0.0757 µM and 0.347 µM | 0.732 µM and 4.64 µM |
| O=CN/C=C/c1cccc(O)c1 |  | > 97.5 µM |  | > 68.4 µM |  | 99.2 µM |  | 89.2 µM |  | > 93.4 µM |  | > 100 µM |  | > 75.6 µM |  | > 100 µM |  | 98.8 µM |  | > 83.2 µM |
| CCN(Cc1ccc(F)cc1)c1ccc(CO)c(F)c1 | 23.5 µM | > 100 µM | 6.03 µM | 60.7 µM | 18.9 µM | > 69 µM | 0.171 µM | 0.364 µM | 24.8 µM | > 92.3 µM | 32 µM | > 100 µM | 10.9 µM | 24.2 µM | 15.9 µM | 80.7 µM | 7.09 µM | > 100 µM | 8.67 µM | 54.4 µM |
| O=S(=O)(Nc1ccc(Br)c(Cl)c1)c1ccc(-c2cnc(C3CC3)o2)cc1 | 1.52 µM | 17.6 µM | 0.339 µM | 16 µM | 1.91 µM | 16.4 µM | 1.23 µM | 18.8 µM | 1.56 µM | 23.5 µM | 4.35 µM | 22 µM | 0.602 µM | 13.9 µM | 1.49 µM | 24.2 µM | 0.392 µM | 15.4 µM | 1.11 µM | 13.6 µM |
| COc1cccc2c1C(=O)c1c(O)c3c(c(O)c1C2=O)CC(O)(C(O)CO)CC3OC1CC(N2CCOCC2)C(O)C(C)O1 (stereo unspecified) |  | 3.31 µM |  | 0.0895 µM |  | 0.243 µM | < 0.001 µM |  | 0.0265 µM | 0.0166 µM and 0.158 µM | 0.0221 µM | 0.0168 µM and 0.0592 µM | 0.017 µM | 0.00553 µM and 0.0332 µM | 0.0579 µM |  | 0.0138 µM |  | 0.00398 µM and 0.0213 µM | 0.0314 µM and 0.0652 µM |
| O=C(N/C(=C/c1ccc(Cl)cc1Cl)c1nc2ccccc2s1)c1ccccc1 |  | 31.5 µM |  | 52.1 µM |  | 22.3 µM |  | 27.7 µM |  | 34 µM |  | 34.2 µM |  | 26.4 µM |  | 79.3 µM |  | 24.6 µM |  | 29.9 µM |
| CCOC(=O)c1cc2c(n1Cc1cccc(OC)c1)-c1oncc1CCC2 | 2.46 µM | > 32.5 µM | 0.385 µM | > 100 µM | 4.06 µM | > 100 µM | 32.1 µM | > 100 µM | 9.03 µM | > 100 µM | 5.55 µM | > 100 µM | 0.693 µM | 14.8 µM | 3.48 µM | > 100 µM | 0.554 µM | > 100 µM | 4.48 µM | > 100 µM |
| COc1ccc(-c2nc(-c3ccccc3)c(-c3ccccc3)[nH]2)cc1OC1CCCC1 | > 100 µM | > 100 µM | > 100 µM | > 100 µM | 15.5 µM | > 100 µM | > 100 µM | > 100 µM | > 100 µM | > 100 µM | > 100 µM | > 100 µM | > 100 µM | > 100 µM | > 100 µM | > 100 µM | > 100 µM | > 100 µM | > 100 µM | > 100 µM |
| COc1cc2c3c(n(CCCCN)c(=O)c2cc1OC)-c1cc2c(cc1C3=O)OCO2 | 0.147 µM | 1.03 µM | 0.0191 µM | 1.13 µM | 0.442 µM | 1.56 µM | 0.492 µM | 1.58 µM | 0.801 µM | 5.55 µM | 1.56 µM | 12.4 µM | 1.6 µM | 6.4 µM | 1.23 µM | 9.41 µM | 0.0851 µM | 2.3 µM | 2.97 µM | 12 µM |
